# Test results reported in patent publication US20060069132A1, “Azolecarboxamide herbicides” (priority 2004, published 2006).
# Experiments:
# velvetleaf = assay: Test B pre-/postemergence herbicide test; assay type: in vivo, Abutilon theophrasti; settings: for Velvetleaf plant response rating: postemergence; for Plant response rating, Velvetleaf: 0 = no effect, 100 = complete control
# Procedure, shortened: (§1)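 Response was scored visually 13 to 15 days after treatment against untreated greenhouse controls, 0 meaning no effect and 100 complete control. Formulations (solvent mixture plus surfactant) went onto soil after planting, onto foliage of 1- to 4-leaf plants, and onto 2-leaf plants in a flooded paddy set including rice and barnyardgrass.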
# ducksalad = assay: Test B flooded paddy test; assay type: in vivo, Heteranthera limosa; settings: 1000 g ai/ha, scale 0 to 100 (0 no effect, 100 complete control)
# Procedure, shortened: (§2)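 Visual ratings, 0 (no effect) to 100 (complete control), made versus controls after 13–15 d greenhouse. Paddy plants treated at 2-leaf stage; postemergence plants at 1- to 4-leaf stage, 2–18 cm tall.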
# [1] = test system: small flower umbrella sedge; assay: Test B flooded paddy test; assay type: in vivo, Cyperus difformis; settings: 1000 g ai/ha, scale 0 to 100 (0 no effect, 100 complete control)
# Procedure, shortened: as §2
# cocklebur = assay: Test B pre-/postemergence herbicide test; assay type: in vivo, Xanthium strumarium; settings: for Cocklebur plant response rating (0 to 100 scale) / Plant response rating, Cocklebur: 0 = no effect, 100 = complete control; for Cocklebur plant response rating: postemergence
# Procedure, shortened: (§3)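 Visual rating, 0 (no effect) to 100 (complete control), versus untreated controls after 13–15 d in greenhouse. Pre- and postemergence applications (postemergence plants 2–18 cm, 1–4 leaves); flooded paddy arm at 2-leaf stage. Compounds in non-phytotoxic solvent plus surfactant.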
# lambsquarters = assay: Test B pre-/postemergence herbicide test; assay type: in vivo, Chenopodium album; settings: for Lambsquarters plant response rating (0 to 100 scale) / Plant response rating, Lambsquarters: 0 = no effect, 100 = complete control; for Lambsquarters plant response rating: postemergence
# Procedure, shortened: as §1
# Surinam grass = assay: Test B pre-/postemergence herbicide test; assay type: in vivo, Urochloa decumbens; settings: for Surinam Grass plant response rating (0 to 100 scale) / Plant response rating, Surinam Grass: 0 = no effect, 100 = complete control; for Surinam Grass plant response rating: postemergence
# Procedure, shortened: as §1
# wheat = assay: Test B postemergence herbicide test; assay type: in vivo, Triticum aestivum; set-up: key to Wheat plant response rating: 0 = no effect, 100 = complete control; settings: postemergence
# Procedure, shortened: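 Treated at 2-leaf (paddy) or 1–4-leaf, 2–18 cm (postemergence); greenhouse 13–15 d; visual score vs control, 0 none to 100 complete control; dash = not tested.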
# rice = assay: Test B flooded paddy test; assay type: in vivo, Oryza sativa; settings: 1000 g ai/ha, scale 0 to 100 (0 no effect, 100 complete control)
# Procedure, shortened: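 Postemergence plants were sprayed with formulated test chemicals at 2 to 18 cm height (1- to 4-leaf stage); paddy species were grown to the 2-leaf stage. After 13 to 15 days in a greenhouse, injury was rated visually against untreated controls on a 0–100 scale (0 = no effect, 100 = complete control).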
# pigweed = assay: Test B pre-/postemergence herbicide test; assay type: in vivo, Amaranthus retroflexus; settings: for Pigweed plant response rating (0 to 100 scale) / Plant response rating, Pigweed: 0 = no effect, 100 = complete control; for Pigweed plant response rating: postemergence
# Procedure, shortened: as §1
# barnyardgrass [2] = assay: Test B flooded paddy test; assay type: in vivo, Echinochloa crus-galli; settings: 1000 g ai/ha, scale 0 to 100 (0 no effect, 100 complete control)
# Procedure, shortened: as §2
# giant foxtail = assay: Test B pre-/postemergence herbicide test; assay type: in vivo, Setaria faberi; settings: for Foxtail, Giant plant response rating (0 to 100 scale) / Plant response rating, Foxtail, Giant: 0 = no effect, 100 = complete control; for Foxtail, Giant plant response rating: postemergence
# Procedure, shortened: as §1
# barnyardgrass [3] = assay: Test B pre-/postemergence herbicide test; assay type: in vivo, Echinochloa crus-galli; settings: for Barnyardgrass plant response rating (0 to 100 scale) / Plant response rating, Barnyardgrass: 0 = no effect, 100 = complete control; for Barnyardgrass plant response rating: postemergence
# Procedure, shortened: as §3
# large crabgrass = assay: Test B pre-/postemergence herbicide test; assay type: in vivo, Digitaria sanguinalis; settings: for Crabgrass, Large plant response rating (0 to 100 scale) / Plant response rating, Crabgrass, Large: 0 = no effect, 100 = complete control; for Crabgrass, Large plant response rating: postemergence
# Procedure, shortened: as §1
# morningglory = assay: Test B pre-/postemergence herbicide test; assay type: in vivo, Ipomoea coccinea; settings: for Morningglory plant response rating (0 to 100 scale) / Plant response rating, Morningglory: 0 = no effect, 100 = complete control; for Morningglory plant response rating: postemergence
# Procedure, shortened: as §3
# blackgrass = assay: Test B postemergence herbicide test; assay type: in vivo, Alopecurus myosuroides; settings: postemergence
# Procedure, shortened: as §2
# [4] = 125 g ai/ha, visual rating, scale 0 (no effect) to 100 (complete control)
# [5] = 500 g ai/ha, visual rating, preemergence
# [6] = 500 g ai/ha, scale 0 to 100, 0 is no effect, 100 is complete control
# [7] = 125 g ai/ha, 0 is no effect, 100 is complete control, preemergence
smiles,measurement,setting,value
CCOC(=O)c1ccc(F)c(NC(=O)c2cc(C3(C)CC3)nn2CC)c1 [Compound 296],Velvetleaf plant response rating,velvetleaf; [4],90
same,"Plant response rating, Velvetleaf",velvetleaf; [5],80
same,Velvetleaf plant response rating,velvetleaf; [6],100
same,Ducksalad plant response rating,ducksalad,80
same,"Sedge, Umbrella plant response rating",[1],80
same,Cocklebur plant response rating (0 to 100 scale),"cocklebur; 125 g ai/ha, preemergence",0
same,Cocklebur plant response rating,cocklebur; [4],50
same,"Plant response rating, Cocklebur",cocklebur; [5],0
same,Cocklebur plant response rating,cocklebur; [6],60
same,Lambsquarters plant response rating (0 to 100 scale),"lambsquarters; 125 g ai/ha, preemergence",90
same,Lambsquarters plant response rating,lambsquarters; [4],50
same,"Plant response rating, Lambsquarters",lambsquarters; [5],100
same,Lambsquarters plant response rating,lambsquarters; [6],70
same,Surinam Grass plant response rating (0 to 100 scale),"Surinam grass; 125 g ai/ha, preemergence",20
same,Surinam Grass plant response rating,Surinam grass; [4],40
same,"Plant response rating, Surinam Grass",Surinam grass; [5],60
same,Surinam Grass plant response rating,Surinam grass; [6],50
same,Wheat plant response rating,wheat; [4],20
same,Wheat plant response rating,wheat; [6],30
same,Rice plant response rating,rice,60
same,Pigweed plant response rating (0 to 100 scale),"pigweed; 125 g ai/ha, preemergence",70
same,Pigweed plant response rating,pigweed; [4],80
same,"Plant response rating, Pigweed",pigweed; [5],80
same,Pigweed plant response rating,pigweed; [6],100
same,Barnyardgrass plant response rating,barnyardgrass [2],80
same,"Foxtail, Giant plant response rating (0 to 100 scale)","giant foxtail; 125 g ai/ha, preemergence",70
same,"Foxtail, Giant plant response rating",giant foxtail; [4],60
same,"Plant response rating, Foxtail, Giant",giant foxtail; [5],90
same,"Foxtail, Giant plant response rating",giant foxtail; [6],60
same,Barnyardgrass plant response rating (0 to 100 scale),"barnyardgrass [3]; 125 g ai/ha, preemergence",30
same,Barnyardgrass plant response rating,barnyardgrass [3]; [4],30
same,"Plant response rating, Barnyardgrass",barnyardgrass [3]; [5],60
same,Barnyardgrass plant response rating,barnyardgrass [3]; [6],80
same,"Crabgrass, Large plant response rating (0 to 100 scale)","large crabgrass; 125 g ai/ha, preemergence",40
same,"Crabgrass, Large plant response rating",large crabgrass; [4],30
same,"Plant response rating, Crabgrass, Large",large crabgrass; [5],100
same,"Crabgrass, Large plant response rating",large crabgrass; [6],60
same,Morningglory plant response rating (0 to 100 scale),"morningglory; 125 g ai/ha, preemergence",10
same,Morningglory plant response rating,morningglory; [4],50
same,"Plant response rating, Morningglory",morningglory; [5],20
same,Morningglory plant response rating,morningglory; [6],80
same,Blackgrass plant response rating,blackgrass; [4],30
same,Blackgrass plant response rating,blackgrass; [6],40
CCn1nc(C2(C)CC2)cc1C(=O)Nc1cccc(C(=O)N2CC=CC2)c1 [Compound 304],Velvetleaf plant response rating,velvetleaf; [4],10
same,"Plant response rating, Velvetleaf",velvetleaf; [5],100
same,Velvetleaf plant response rating,velvetleaf; [6],60
same,Ducksalad plant response rating,ducksalad,90
same,"Sedge, Umbrella plant response rating",[1],90
same,Cocklebur plant response rating (0 to 100 scale),"cocklebur; 125 g ai/ha, preemergence",0
same,Cocklebur plant response rating,cocklebur; [4],0
same,"Plant response rating, Cocklebur",cocklebur; [5],0
same,Cocklebur plant response rating,cocklebur; [6],100
same,Lambsquarters plant response rating (0 to 100 scale),"lambsquarters; 125 g ai/ha, preemergence",100
same,Lambsquarters plant response rating,lambsquarters; [4],80
same,"Plant response rating, Lambsquarters",lambsquarters; [5],100
same,Lambsquarters plant response rating,lambsquarters; [6],90
same,Surinam Grass plant response rating (0 to 100 scale),"Surinam grass; 125 g ai/ha, preemergence",10
same,Surinam Grass plant response rating,Surinam grass; [4],0
same,"Plant response rating, Surinam Grass",Surinam grass; [5],70
same,Surinam Grass plant response rating,Surinam grass; [6],10
same,Wheat plant response rating,wheat; [4],10
same,Wheat plant response rating,wheat; [6],20
same,Rice plant response rating,rice,90
same,Pigweed plant response rating (0 to 100 scale),"pigweed; 125 g ai/ha, preemergence",100
same,Pigweed plant response rating,pigweed; [4],90
same,"Plant response rating, Pigweed",pigweed; [5],100
same,Pigweed plant response rating,pigweed; [6],90
same,Barnyardgrass plant response rating,barnyardgrass [2],80
same,"Foxtail, Giant plant response rating (0 to 100 scale)","giant foxtail; 125 g ai/ha, preemergence",10
same,"Foxtail, Giant plant response rating",giant foxtail; [4],30
same,"Plant response rating, Foxtail, Giant",giant foxtail; [5],90
same,"Foxtail, Giant plant response rating",giant foxtail; [6],30
same,Barnyardgrass plant response rating (0 to 100 scale),"barnyardgrass [3]; 125 g ai/ha, preemergence",10
same,Barnyardgrass plant response rating,barnyardgrass [3]; [4],20
same,"Plant response rating, Barnyardgrass",barnyardgrass [3]; [5],70
same,Barnyardgrass plant response rating,barnyardgrass [3]; [6],20
same,"Crabgrass, Large plant response rating (0 to 100 scale)","large crabgrass; 125 g ai/ha, preemergence",10
same,"Crabgrass, Large plant response rating",large crabgrass; [4],10
same,"Plant response rating, Crabgrass, Large",large crabgrass; [5],100
same,"Crabgrass, Large plant response rating",large crabgrass; [6],10
same,Morningglory plant response rating (0 to 100 scale),"morningglory; 125 g ai/ha, preemergence",10
same,Morningglory plant response rating,morningglory; [4],100
same,"Plant response rating, Morningglory",morningglory; [5],10
same,Morningglory plant response rating,morningglory; [6],100
same,Blackgrass plant response rating,blackgrass; [4],10
same,Blackgrass plant response rating,blackgrass; [6],40
CCn1nc(C(C)(C)C)cc1C(=O)Nc1cccc(OC(F)(F)C(F)F)c1 [Compound 333],"Plant response rating (0 to 100 scale), Velvetleaf",velvetleaf; [7],10
same,Velvetleaf plant response rating,velvetleaf; [4],50
same,Velvetleaf plant response rating,velvetleaf; [6],60
same,Ducksalad plant response rating,ducksalad,80
same,"Sedge, Umbrella plant response rating",[1],80
same,"Plant response rating (0 to 100 scale), Cocklebur",cocklebur; [7],0
same,Cocklebur plant response rating,cocklebur; [4],20
same,"Plant response rating, Cocklebur",cocklebur; [5],0
same,Cocklebur plant response rating,cocklebur; [6],80
same,"Plant response rating (0 to 100 scale), Lambsquarters",lambsquarters; [7],40
same,Lambsquarters plant response rating,lambsquarters; [4],90
same,"Plant response rating, Lambsquarters",lambsquarters; [5],100
same,Lambsquarters plant response rating,lambsquarters; [6],100
same,"Plant response rating (0 to 100 scale), Surinam Grass",Surinam grass; [7],10
same,Surinam Grass plant response rating,Surinam grass; [4],20
same,"Plant response rating, Surinam Grass",Surinam grass; [5],20
same,Surinam Grass plant response rating,Surinam grass; [6],30
same,Wheat plant response rating,wheat; [4],20
same,Wheat plant response rating,wheat; [6],30
same,Rice plant response rating,rice,20
same,"Plant response rating (0 to 100 scale), Pigweed",pigweed; [7],90
same,Pigweed plant response rating,pigweed; [4],90
same,"Plant response rating, Pigweed",pigweed; [5],100
same,Pigweed plant response rating,pigweed; [6],100
same,Barnyardgrass plant response rating,barnyardgrass [2],50
same,"Plant response rating (0 to 100 scale), Foxtail, Giant",giant foxtail; [7],10
same,"Foxtail, Giant plant response rating",giant foxtail; [4],30
same,"Plant response rating, Foxtail, Giant",giant foxtail; [5],20
same,"Foxtail, Giant plant response rating",giant foxtail; [6],40
same,"Plant response rating (0 to 100 scale), Barnyardgrass",barnyardgrass [3]; [7],0
same,Barnyardgrass plant response rating,barnyardgrass [3]; [4],10
same,"Plant response rating, Barnyardgrass",barnyardgrass [3]; [5],20
same,Barnyardgrass plant response rating,barnyardgrass [3]; [6],40
same,"Plant response rating (0 to 100 scale), Crabgrass, Large",large crabgrass; [7],40
same,"Crabgrass, Large plant response rating",large crabgrass; [4],40
same,"Plant response rating, Crabgrass, Large",large crabgrass; [5],70
same,"Crabgrass, Large plant response rating",large crabgrass; [6],100
same,"Plant response rating (0 to 100 scale), Morningglory",morningglory; [7],0
same,Morningglory plant response rating,morningglory; [4],30
same,"Plant response rating, Morningglory",morningglory; [5],10
same,Morningglory plant response rating,morningglory; [6],60
same,Blackgrass plant response rating,blackgrass; [4],30
same,Blackgrass plant response rating,blackgrass; [6],70
